# Assay results from patent publication US7153869B2, “Substituted amino acids as erythropoietin mimetics” (priority 1998, dated 2006).
# pIC50: −log10 of the molar value. Read-outs that look alike come from different tables or passages of the source.
# Molecular target: T1, EBP-Ig (N-terminal 225 amino acids of the human EPO receptor joined to an Ig heavy chain) (Homo sapiens, UniProt P19235)
# T1 construct: Ig heavy chain (fusion partner); made in house; host or cells: NSO cells (secreted into conditioned media)
# T1 sequence (P19235 25-250 limits assumed): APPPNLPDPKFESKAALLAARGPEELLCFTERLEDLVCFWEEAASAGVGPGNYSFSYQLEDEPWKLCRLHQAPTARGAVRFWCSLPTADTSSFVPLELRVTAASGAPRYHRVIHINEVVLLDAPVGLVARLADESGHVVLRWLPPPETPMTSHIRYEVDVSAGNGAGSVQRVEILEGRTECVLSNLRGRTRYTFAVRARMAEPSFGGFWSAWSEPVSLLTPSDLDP
# Assay: Inhibition of [125I]EPO binding to immobilized EBP-Ig (EPO binding protein-Ig), scintillation Flash plate competition assay
# Details: for IC30 μM (Inhibition of EPO binding to EBP-Ig): 0–500 μM test compound; for % inh @ 50 μM (Inhibition of EPO binding to EBP-Ig): 50 μM test compound, average % inhibition
# [1] = read-out: % inh @ 50 μM (Inhibition of EPO binding to EBP-Ig)
# [2] = read-out: EPO/EBP-Ig % inh @ 50 μM, Table 11, 50 μM
compound,measurement,setting,value
CC(C)(C)c1ccc(Oc2cccc(/C=C/CN[C@@H](CO)C(=O)O)c2)cc1.O=C(O)C(F)(F)F [compound 351],EPO/EBP-Ig % inh @ 50 μM,"50 μM compound, Table 20A",29%
COC(=O)[C@H](COC(C)(C)C)NC/C=C/c1ccc(-c2ccccc2)cc1 [compound 353],EPO/EBP-Ig % inh @ 50 μM,"50 μM compound, Table 20A",24%
COC(=O)[C@H](COC(C)(C)C)NC/C=C/c1cccc(Oc2ccc(Cl)c(Cl)c2)c1 [compound 354],EPO/EBP-Ig % inh @ 50 μM,"50 μM compound, Table 20A",31%
COC(=O)[C@H](COC(C)(C)C)NC/C=C/c1cccc(Oc2cccc(C(F)(F)F)c2)c1 [compound 355],EPO/EBP-Ig % inh @ 50 μM,"50 μM compound, Table 20A",22%
COC(=O)[C@H](COC(C)(C)C)NC/C=C/c1cccc(Oc2ccc(C(C)(C)C)cc2)c1 [compound 356],EPO/EBP-Ig % inh @ 50 μM,"50 μM compound, Table 20A",23%
CC(C)(C)OC[C@H](NC/C=C/c1cccc(Oc2cccc(C(F)(F)F)c2)c1)C(=O)O [compound 357],EPO/EBP-Ig % inh @ 50 μM,"50 μM compound, Table 20A",12%
C[C@H](O)[C@H](NC/C=C/c1ccc(C(F)(F)F)cc1)C(=O)O.O=C(O)C(F)(F)F [compound 358],EPO/EBP-Ig % inh @ 50 μM,50 μM compound,0%
COC(=O)[C@H](Cc1ccccc1)NC/C=C/c1ccccc1 [compound 360],EPO/EBP-Ig % inh @ 50 μM,50 μM compound,18%
CC(=O)O.COC(=O)c1cccc(/C=C/CN[C@@H](Cc2ccccc2)C(=O)OC)c1 [compound 361],EPO/EBP-Ig % inh @ 50 μM,50 μM compound,24%
O=C(O)C(F)(F)F.O=C(O)[C@H](Cc1ccc(O)cc1)NC/C=C/c1ccc(C(F)(F)F)cc1 [compound 362],EPO/EBP-Ig % inh @ 50 μM,50 μM compound,0%
COC(=O)c1cccc(C=CCNC(Cc2ccc(OC)cc2)C(=O)OC)c1 (stereo not shown) [compound 363],IC30 μM (Inhibition of EPO binding to EBP-Ig),0.5 nM [125I]EPO,35 µM
same,inhibition at 50 µM,[1],33%
same,inhibition at 50 µM,"read-out: EPO/EBP-Ig % inh @ 50 μM, 50 μM compound",33%
same,IC50,"read-out: IC50, μM (Inhibition of EPO binding to EBP-Ig), 0.5 nM [125I]EPO, concentration reducing corrected total binding to 50%",220 µM
COC(=O)[C@H](Cc1c[nH]c2ccccc12)NC/C=C/c1ccccc1 [compound 364],EPO/EBP-Ig % inh @ 50 μM,50 μM compound,16%
CSCC[C@H](NC/C=C/c1ccc(C(F)(F)F)cc1)C(=O)O.O=C(O)C(F)(F)F [compound 365],EPO/EBP-Ig % inh @ 50 μM,50 μM compound,0%
CC(=O)O.COC(=O)CC(NCC=Cc1cccc(C(=O)OC)c1)C(=O)OC (stereo not shown) [compound 366],IC30 μM (Inhibition of EPO binding to EBP-Ig),0.5 nM [125I]EPO,65 µM
same,EPO/EBP-Ig % inh @ 50 μM,50 μM compound,38%
same,% inh @ 50 μM (Inhibition of EPO binding to EBP-Ig),0.5 nM [125I]EPO,38%
NC(=O)C[C@H](NC/C=C/c1ccc(C(F)(F)F)cc1)C(=O)O.O=C(O)C(F)(F)F [compound 367],EPO/EBP-Ig % inh @ 50 μM,50 μM compound,0%
CC(=O)O.COC(=O)c1cccc(C=CCNC(CSCc2ccccc2)C(=O)OC)c1 (stereo not shown) [compound 368],IC30 μM (Inhibition of EPO binding to EBP-Ig),0.5 nM [125I]EPO,90 µM
same,EPO/EBP-Ig % inh @ 50 μM,50 μM compound,40%
same,% inh @ 50 μM (Inhibition of EPO binding to EBP-Ig),0.5 nM [125I]EPO,40%
CC(C)C[C@H](NC/C=C/c1ccc(C(F)(F)F)cc1)C(=O)O.O=C(O)C(F)(F)F [compound 369],EPO/EBP-Ig % inh @ 50 μM,50 μM compound,12%
CC(C)[C@H](NC/C=C/c1ccc(C(F)(F)F)cc1)C(=O)O.O=C(O)C(F)(F)F [compound 370],EPO/EBP-Ig % inh @ 50 μM,50 μM compound,0%
CC(=O)O.COC(=O)c1cccc(C=CCNC(C(=O)OC)C(C)C)c1 (stereo not shown) [compound 371],EPO/EBP-Ig % inh @ 50 μM,50 μM compound,16%
COC(=O)[C@H](C)NC/C=C/c1ccccc1 [compound 372],EPO/EBP-Ig % inh @ 50 μM,50 μM compound,0%
NCCCCC(C(=O)O)N(CC=Cc1cccs1)CC=Cc1cccs1 (stereo not shown) [cpd 50],EPO/EBP-Ig % inh @ 50 μM,"Table 3, 50 μM",−6%
"Cc1ccc(C(=O)Nc2cccc(CN(Cc3cccc(NC(=O)c4ccc(C)cc4)c3)C(CC(=O)O)C(=O)O)c2)cc1 (stereo not shown) [cpd 64, N,N-bis(3-(4-Methylbenzoyl)aminobenzyl)Asp-OH]",EPO/EBP-Ig % inh @ 50 μM,"Table 4, 50 μM",−4%
"COC(=O)C(CCC(=O)OC(C)(C)C)N(CC=Cc1cccc(Oc2ccccc2)c1)CC=Cc1cccc(Oc2ccccc2)c1 (stereo not shown) [cpd 96, N,N-bis(3-Phenoxycinnamyl)Glu(O-t-Bu)-OMe]",EPO/EBP-Ig % inh @ 50 μM,"Table 6, 50 μM",−5%
"CC(C)(C)OC(=O)CC(C(=O)OC(C)(C)C)N(CC=Cc1cccc(Oc2ccccc2)c1)CC=Cc1cccc(Oc2ccccc2)c1 (stereo not shown) [cpd 106, N,N-bis(3-Phenoxycinnamyl)Asp(O-t-Bu)-O-t-Bu]",EPO/EBP-Ig % inh @ 50 μM,"Table 6, 50 μM",20%
"O=C(O)CC(C(=O)O)N(CC=Cc1cccc(Oc2ccccc2)c1)CC=Cc1cccc(Oc2ccccc2)c1 (stereo not shown) [cpd 107, N,N-bis(3-Phenoxycinnamyl)Asp-OH]",IC30 μM (Inhibition of EPO binding to EBP-Ig),0.5 nM [125I]EPO,30 µM
same,% inh @ 50 μM (Inhibition of EPO binding to EBP-Ig),0.5 nM [125I]EPO,78%
same,EPO/EBP-Ig % inh @ 50 μM,"Table 6, 50 μM",78%
"COC(=O)C(CCCCNC(=O)OC(C)(C)C)N(Cc1ccc(OCc2ccccc2)cc1)Cc1ccc(OCc2ccccc2)cc1 (stereo not shown) [cpd 111, N,N-bis(4-Benzyloxybenzyl)Lys(Boc)-OMe]",EPO/EBP-Ig % inh @ 50 μM,"Table 7, 50 μM",5%
"COC(=O)C(CCCCNC(=O)OC(C)(C)C)N(Cc1ccc(OCc2ccccc2)cc1)Cc1cccc([N+](=O)[O-])c1 (stereo not shown) [cpd 113, N-(4-Benzyloxybenzyl)-N-(3-nitrobenzyl)Lys(Boc)-OMe]",EPO/EBP-Ig % inh @ 50 μM,"Table 7, 50 μM",24%
"COC(=O)C(CCCCN)N(Cc1ccc(OCc2ccccc2)cc1)Cc1cccc(NC(=O)c2ccco2)c1 (stereo not shown) [cpd 117, N-(4-Benzyloxybenzyl)-N-(3-((2-furancarbonyl)amino)benzyl)Lys-OMe]",% inh @ 50 μM (Inhibition of EPO binding to EBP-Ig),0.5 nM [125I]EPO,34%
same,EPO/EBP-Ig % inh @ 50 μM,"Table 7, 50 μM",34%
"CC(C)(C)OC(=O)CCC(C(=O)NCCOCCOCCNC(=O)C(CCC(=O)OC(C)(C)C)N(Cc1ccc(OCc2ccccc2)cc1)Cc1ccc(OCc2ccccc2)cc1)N(Cc1ccc(OCc2ccccc2)cc1)Cc1ccc(OCc2ccccc2)cc1 (stereo not shown) [cpd 245, [N,N-bis(4-Benzyloxybenzyl)Glu(O-t-Bu)-NHCH2CH2OCH2]2]",EPO/EBP-Ig % inh @ 50 μM,"Table 11, 50 μM",0%
"O=C(O)CCC(C(=O)NCCOCCOCCNC(=O)C(CCC(=O)O)N(Cc1ccc(OCc2ccccc2)cc1)Cc1ccc(OCc2ccccc2)cc1)N(Cc1ccc(OCc2ccccc2)cc1)Cc1ccc(OCc2ccccc2)cc1 (stereo not shown) [cpd 246, [N,N-bis(4-Benzyloxybenzyl)GluNHCH2CH2OCH2]2]",IC30 μM (Inhibition of EPO binding to EBP-Ig),0.5 nM [125I]EPO,10 µM
same,inhibition at 50 µM,[1],79%
same,inhibition at 50 µM,[2],79%
"CCCCC(=O)Nc1cccc(CN(Cc2cccc(Oc3ccccc3)c2)C(CCC(=O)O)C(=O)NCCOCCOCCNC(=O)C(CCC(=O)O)N(Cc2cccc(NC(=O)CCCC)c2)Cc2cccc(Oc3ccccc3)c2)c1 (stereo not shown) [cpd 247, [N-(3-Phenoxybenzyl)-N-(3-(pentanoylamino)benzyl)-Glu-NHCH2CH2OCH2]2]",pIC50,,4.74
same,IC30 μM (Inhibition of EPO binding to EBP-Ig),0.5 nM [125I]EPO,7 µM
same,inhibition at 50 µM,[1],47%
same,inhibition at 50 µM,[2],47%
"COC(=O)C(COC(C)(C)C)N(CC=Cc1cccc(Oc2ccccc2)c1)CC=Cc1cccc(Oc2ccccc2)c1 (stereo not shown) [cpd 290, N,N-bis(3-Phenoxycinnamyl)Ser(t-Bu)-OMe]",EPO/EBP-Ig % inh @ 50 μM,"50 μM compound, Table 16A",0%
"O=C(O)[C@H](CO)N(C/C=C/c1cccc(Oc2ccccc2)c1)C/C=C/c1cccc(Oc2ccccc2)c1 [cpd 300, N,N-Bis(3-phenoxycinnamyl)Ser-OH]",pIC50,,3.84
same,IC30 μM (Inhibition of EPO binding to EBP-Ig),0.5 nM [125I]EPO,35 µM
same,inhibition at 50 µM,[1],57%
same,inhibition at 50 µM,"read-out: EPO/EBP-Ig % inh @ 50 μM, 50 μM compound, Table 16A",57%
"COC(=O)C(CCC(=O)O)NCC=Cc1cccc(Oc2ccccc2)c1 (stereo not shown) [cpd 325, N-(3-Phenoxycinnamyl)Glu-OMe]",EPO/EBP-Ig % inh @ 50 μM,"50 μM compound, Table 19A",6%
"O=C(O)CCC(NCC=Cc1cccc(Oc2ccccc2)c1)C(=O)O (stereo not shown) [cpd 326, N-(3-Phenoxycinnamyl)Glu-OH]",EPO/EBP-Ig % inh @ 50 μM,"50 μM compound, Table 19A",0%
"COC(=O)C(CCC(=O)OC(C)(C)C)NCC=Cc1cccc(Oc2ccccc2)c1 (stereo not shown) [cpd 334, N-(3-phenoxycinnamyl)Glu(O-t-Bu)-OMe]",EPO/EBP-Ig % inh @ 50 μM,"50 μM compound, Table 19A",6%
"CC(C)(C)OC(=O)CCC(NCC=Cc1cccc(Oc2ccccc2)c1)C(=O)O (stereo not shown) [cpd 337, N-(3-Phenoxycinnamyl)Glu(O-t-Bu)-OH]",EPO/EBP-Ig % inh @ 50 μM,"50 μM compound, Table 19A",0%
"COC(=O)[C@H](CO)NCC=Cc1cccc(Oc2ccccc2)c1 [cpd 346, N-(3-Phenoxycinnamyl)Ser-OMe]",EPO/EBP-Ig % inh @ 50 μM,"50 μM compound, Table 20A",28%
"O=C(O)C(CO)NCC=Cc1cccc(Oc2ccccc2)c1 (stereo not shown) [cpd 347, N-(3-phenoxycinnamyl)Ser-OH]",EPO/EBP-Ig % inh @ 50 μM,"50 μM compound, Table 20A",23%
"COC(=O)C(COC(C)(C)C)NCC=Cc1cccc(Oc2ccccc2)c1 (stereo not shown) [cpd 352, N-(3-phenoxycinnamyl)Ser(t-Bu)-OMe]",EPO/EBP-Ig % inh @ 50 μM,"50 μM compound, Table 20A",8%
